Calls of active or inactive are those of the source. No cut-off for these calls is given here.
tested on: not listed separately; assay: Drug uptake in human MGC-803 cells at 10 uM incubated for 8 hrs by laser scanning confocal microscope; assay type: ADME, cell-based; settings: mgc-803, 8 h

SMILES | Drug uptake
Clc1ccc2c(c1)C1=NN(c3ccccc3)C(c3c[nH]c4ccccc34)C1CS2 (stereo not drawn) | Active
Clc1cc(Cl)c2c(c1)C1=NN(c3ccccc3)C(c3c[nH]c4ccccc34)C1CS2 (stereo not drawn) | Active

tested on: MGC-803; assay: Antiproliferative activity against human MGC-803 cells assessed as reduction in cell growth incubated for 48 hrs by MTT assay; assay type: functional, cell-based; settings: MGC-803, 48 h

SMILES | IC50 [µM]
Cc1cc(C)c2c(c1)C1=NN(c3ccccc3)C(c3c[nH]c4ccccc34)C1CS2 (stereo not drawn) | 26.5
Clc1ccc2c(c1)C1=NN(c3ccccc3)C(c3c[nH]c4ccccc34)C1CS2 (stereo not drawn) | 15.4
Clc1cc(Cl)c2c(c1)C1=NN(c3ccccc3)C(c3c[nH]c4ccccc34)C1CS2 (stereo not drawn) | 20.5

tested on: BEL-7404 tumor cell line; assay: Antiproliferative activity against human Bel-7404 tumor cell line assessed as reduction in cell growth incubated for 48 hrs by MTT assay; assay type: functional, cell-based; settings: BEL-7404, 48 h

SMILES | IC50 [µM]
Cc1cc(C)c2c(c1)C1=NN(c3ccccc3)C(c3c[nH]c4ccccc34)C1CS2 (stereo not drawn) | 23.7
Clc1ccc2c(c1)C1=NN(c3ccccc3)C(c3c[nH]c4ccccc34)C1CS2 (stereo not drawn) | 42.9
Clc1cc(Cl)c2c(c1)C1=NN(c3ccccc3)C(c3c[nH]c4ccccc34)C1CS2 (stereo not drawn) | 21

tested on: MGC-803; assay: Induction of apoptosis in human MGC-803 cells assessed as viable cells at 10 uM incubated for 48 hrs by annexin V-FITC and PI staining based flow cytometry analysis (reference value: 94.47 %); assay type: functional; settings: read-out: Activity

SMILES | viability at 10 µM [%]
Clc1ccc2c(c1)C1=NN(c3ccccc3)C(c3c[nH]c4ccccc34)C1CS2 (stereo not drawn) | 69.9
Clc1cc(Cl)c2c(c1)C1=NN(c3ccccc3)C(c3c[nH]c4ccccc34)C1CS2 (stereo not drawn) | 89.6

molecular target: T1, DNA topoisomerase 1 (Homo sapiens) (UniProt P11387); assay: Inhibition of human topoisomerase 1 assessed as decrease in relaxation of supercoiled pBR322 plasmid DNA at 100 uM using pBR322 plasmid DNA as substrate incubated for 30 mins by agarose gel electrophoresis; settings: not given
T1 sequence (whole entry): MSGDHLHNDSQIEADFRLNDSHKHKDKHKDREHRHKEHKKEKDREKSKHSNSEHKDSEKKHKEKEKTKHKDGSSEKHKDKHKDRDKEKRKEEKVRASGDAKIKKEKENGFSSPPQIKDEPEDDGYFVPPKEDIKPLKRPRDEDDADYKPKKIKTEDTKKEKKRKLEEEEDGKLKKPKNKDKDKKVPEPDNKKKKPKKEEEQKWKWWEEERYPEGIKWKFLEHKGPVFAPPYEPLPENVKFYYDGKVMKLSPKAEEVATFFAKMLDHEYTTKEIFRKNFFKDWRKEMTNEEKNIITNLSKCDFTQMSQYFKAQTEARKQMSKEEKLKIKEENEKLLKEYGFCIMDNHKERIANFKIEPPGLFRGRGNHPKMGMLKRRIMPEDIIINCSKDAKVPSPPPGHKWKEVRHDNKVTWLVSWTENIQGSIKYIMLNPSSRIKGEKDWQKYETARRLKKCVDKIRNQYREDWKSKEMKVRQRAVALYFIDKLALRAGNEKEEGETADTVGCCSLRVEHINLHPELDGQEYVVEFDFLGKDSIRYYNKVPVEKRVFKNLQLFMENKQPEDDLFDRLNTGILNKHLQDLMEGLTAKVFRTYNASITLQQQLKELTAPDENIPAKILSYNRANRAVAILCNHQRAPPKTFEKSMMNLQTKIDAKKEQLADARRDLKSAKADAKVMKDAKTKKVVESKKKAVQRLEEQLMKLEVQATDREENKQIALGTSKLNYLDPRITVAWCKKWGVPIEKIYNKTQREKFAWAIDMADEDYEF

SMILES | inhibition
Cc1cc(C)c2c(c1)C1=NN(c3ccccc3)C(c3c[nH]c4ccccc34)C1CS2 (stereo not drawn) | inactive
Clc1ccc2c(c1)C1=NN(c3ccccc3)C(c3c[nH]c4ccccc34)C1CS2 (stereo not drawn) | inactive
Clc1cc(Cl)c2c(c1)C1=NN(c3ccccc3)C(c3c[nH]c4ccccc34)C1CS2 (stereo not drawn) | inactive

tested on: MGC-803; assay: Induction of cell cycle arrest in human MGC-803 cells assessed as G0/G1 phase at 10 uM incubated for 48 hrs by PI staining based flow cytometry analysis (reference value: 47.6 %); assay type: functional; settings: not given

SMILES | Activity [%]
Clc1ccc2c(c1)C1=NN(c3ccccc3)C(c3c[nH]c4ccccc34)C1CS2 (stereo not drawn) | 38.1
Clc1cc(Cl)c2c(c1)C1=NN(c3ccccc3)C(c3c[nH]c4ccccc34)C1CS2 (stereo not drawn) | 49.7

tested on: MCF7; assay: Antiproliferative activity against human MCF7 cells assessed as reduction in cell growth incubated for 48 hrs by MTT assay; assay type: functional, cell-based; settings: MCF7, 48 h

SMILES | IC50 [µM]
Cc1cc(C)c2c(c1)C1=NN(c3ccccc3)C(c3c[nH]c4ccccc34)C1CS2 (stereo not drawn) | 27
Clc1ccc2c(c1)C1=NN(c3ccccc3)C(c3c[nH]c4ccccc34)C1CS2 (stereo not drawn) | 26.1
Clc1cc(Cl)c2c(c1)C1=NN(c3ccccc3)C(c3c[nH]c4ccccc34)C1CS2 (stereo not drawn) | 25.6

tested on: MGC-803; assay: Induction of apoptosis in human MGC-803 cells assessed as late apoptotic cells at 20 uM incubated for 48 hrs by annexin V-FITC and PI staining based flow cytometry analysis (reference value: 2.96 %); assay type: functional; settings: not given

SMILES | Activity [%]
Clc1ccc2c(c1)C1=NN(c3ccccc3)C(c3c[nH]c4ccccc34)C1CS2 (stereo not drawn) | 52.74
Clc1cc(Cl)c2c(c1)C1=NN(c3ccccc3)C(c3c[nH]c4ccccc34)C1CS2 (stereo not drawn) | 36.06

tested on: MGC-803; assay: Inhibition of topoisomerase 2 purified from human MGC-803 cells assessed as decrease in relaxation of supercoiled pBR322 plasmid DNA at 100 uM using pBR322 plasmid DNA as substrate incubated for 30 mins by agarose gel electrophoresis; assay type: cell-free; settings: not given

SMILES | inhibition
Clc1ccc2c(c1)C1=NN(c3ccccc3)C(c3c[nH]c4ccccc34)C1CS2 (stereo not drawn) | Active
Clc1cc(Cl)c2c(c1)C1=NN(c3ccccc3)C(c3c[nH]c4ccccc34)C1CS2 (stereo not drawn) | Active

tested on: MGC-803; assay: Induction of apoptosis in human MGC-803 cells assessed as viable cells at 20 uM incubated for 48 hrs by annexin V-FITC and PI staining based flow cytometry analysis (reference value: 94.47 %); assay type: functional; settings: read-out: Activity

SMILES | viability at 20 µM [%]
Clc1ccc2c(c1)C1=NN(c3ccccc3)C(c3c[nH]c4ccccc34)C1CS2 (stereo not drawn) | 36.9
Clc1cc(Cl)c2c(c1)C1=NN(c3ccccc3)C(c3c[nH]c4ccccc34)C1CS2 (stereo not drawn) | 49.2

tested on: MGC-803; assay: Induction of apoptosis in human MGC-803 cells assessed as early apoptotic cells at 10 uM incubated for 48 hrs by annexin V-FITC and PI staining based flow cytometry analysis (reference value: 2.54 %); assay type: functional; settings: not given

SMILES | Activity [%]
Clc1ccc2c(c1)C1=NN(c3ccccc3)C(c3c[nH]c4ccccc34)C1CS2 (stereo not drawn) | 12.32
Clc1cc(Cl)c2c(c1)C1=NN(c3ccccc3)C(c3c[nH]c4ccccc34)C1CS2 (stereo not drawn) | 4.92

tested on: MGC-803; assay: Induction of cell cycle arrest in human MGC-803 cells assessed as S phase at 10 uM incubated for 48 hrs by PI staining based flow cytometry analysis (reference value: 43.6 %); assay type: functional; settings: not given

SMILES | Activity [%]
Clc1ccc2c(c1)C1=NN(c3ccccc3)C(c3c[nH]c4ccccc34)C1CS2 (stereo not drawn) | 25.3
Clc1cc(Cl)c2c(c1)C1=NN(c3ccccc3)C(c3c[nH]c4ccccc34)C1CS2 (stereo not drawn) | 25.4

species: Homo sapiens; assay: Inhibition of human topoisomerase 2 assessed as EtBr intercalation into plasmid DNA by converting relaxed DNA into supercoiled DNA at 100 to 300 uM incubated for 30 mins by agarose gel electrophoresis method; settings: dose 100-300 µM

SMILES | inhibition
Clc1cc(Cl)c2c(c1)C1=NN(c3ccccc3)C(c3c[nH]c4ccccc34)C1CS2 (stereo not drawn) | inactive

tested on: MGC-803; assay: Induction of apoptosis in human MGC-803 cells assessed as necrotic cells at 10 uM incubated for 48 hrs by annexin V-FITC and PI staining based flow cytometry analysis (reference value: 0.03 %); assay type: functional; settings: not given

SMILES | Activity [%]
Clc1ccc2c(c1)C1=NN(c3ccccc3)C(c3c[nH]c4ccccc34)C1CS2 (stereo not drawn) | 0.73
Clc1cc(Cl)c2c(c1)C1=NN(c3ccccc3)C(c3c[nH]c4ccccc34)C1CS2 (stereo not drawn) | 0.5

tested on: MGC-803; assay: Inhibition of topoisomerase 2 purified from human MGC-803 cells assessed as decrease in relaxation of supercoiled pBR322 plasmid DNA at 20 uM using pBR322 plasmid DNA as substrate incubated for 30 mins by agarose gel electrophoresis; assay type: cell-free; settings: not given

SMILES | inhibition
Clc1ccc2c(c1)C1=NN(c3ccccc3)C(c3c[nH]c4ccccc34)C1CS2 (stereo not drawn) | Active
Clc1cc(Cl)c2c(c1)C1=NN(c3ccccc3)C(c3c[nH]c4ccccc34)C1CS2 (stereo not drawn) | Active

tested on: MGC-803; assay: Induction of cell cycle arrest in human MGC-803 cells assessed as G2/M phase at 10 uM incubated for 48 hrs by PI staining based flow cytometry analysis (reference value: 8.8 %); assay type: functional; settings: not given

SMILES | Activity [%]
Clc1ccc2c(c1)C1=NN(c3ccccc3)C(c3c[nH]c4ccccc34)C1CS2 (stereo not drawn) | 36.6
Clc1cc(Cl)c2c(c1)C1=NN(c3ccccc3)C(c3c[nH]c4ccccc34)C1CS2 (stereo not drawn) | 24.9

molecular target: DNA topoisomerase 2-alpha (Homo sapiens) (UniProt P11388); assay: Poison activity at human topoisomerase 2alpha assessed as DNA cleavage by measuring linear DNA formation at 100 to 300 uM using supercoiled pBR322 DNA as substrate incubated for 30 mins by agarose gel electrophoresis method; settings: dose 100-300 µM
Sequence (P11388 whole entry): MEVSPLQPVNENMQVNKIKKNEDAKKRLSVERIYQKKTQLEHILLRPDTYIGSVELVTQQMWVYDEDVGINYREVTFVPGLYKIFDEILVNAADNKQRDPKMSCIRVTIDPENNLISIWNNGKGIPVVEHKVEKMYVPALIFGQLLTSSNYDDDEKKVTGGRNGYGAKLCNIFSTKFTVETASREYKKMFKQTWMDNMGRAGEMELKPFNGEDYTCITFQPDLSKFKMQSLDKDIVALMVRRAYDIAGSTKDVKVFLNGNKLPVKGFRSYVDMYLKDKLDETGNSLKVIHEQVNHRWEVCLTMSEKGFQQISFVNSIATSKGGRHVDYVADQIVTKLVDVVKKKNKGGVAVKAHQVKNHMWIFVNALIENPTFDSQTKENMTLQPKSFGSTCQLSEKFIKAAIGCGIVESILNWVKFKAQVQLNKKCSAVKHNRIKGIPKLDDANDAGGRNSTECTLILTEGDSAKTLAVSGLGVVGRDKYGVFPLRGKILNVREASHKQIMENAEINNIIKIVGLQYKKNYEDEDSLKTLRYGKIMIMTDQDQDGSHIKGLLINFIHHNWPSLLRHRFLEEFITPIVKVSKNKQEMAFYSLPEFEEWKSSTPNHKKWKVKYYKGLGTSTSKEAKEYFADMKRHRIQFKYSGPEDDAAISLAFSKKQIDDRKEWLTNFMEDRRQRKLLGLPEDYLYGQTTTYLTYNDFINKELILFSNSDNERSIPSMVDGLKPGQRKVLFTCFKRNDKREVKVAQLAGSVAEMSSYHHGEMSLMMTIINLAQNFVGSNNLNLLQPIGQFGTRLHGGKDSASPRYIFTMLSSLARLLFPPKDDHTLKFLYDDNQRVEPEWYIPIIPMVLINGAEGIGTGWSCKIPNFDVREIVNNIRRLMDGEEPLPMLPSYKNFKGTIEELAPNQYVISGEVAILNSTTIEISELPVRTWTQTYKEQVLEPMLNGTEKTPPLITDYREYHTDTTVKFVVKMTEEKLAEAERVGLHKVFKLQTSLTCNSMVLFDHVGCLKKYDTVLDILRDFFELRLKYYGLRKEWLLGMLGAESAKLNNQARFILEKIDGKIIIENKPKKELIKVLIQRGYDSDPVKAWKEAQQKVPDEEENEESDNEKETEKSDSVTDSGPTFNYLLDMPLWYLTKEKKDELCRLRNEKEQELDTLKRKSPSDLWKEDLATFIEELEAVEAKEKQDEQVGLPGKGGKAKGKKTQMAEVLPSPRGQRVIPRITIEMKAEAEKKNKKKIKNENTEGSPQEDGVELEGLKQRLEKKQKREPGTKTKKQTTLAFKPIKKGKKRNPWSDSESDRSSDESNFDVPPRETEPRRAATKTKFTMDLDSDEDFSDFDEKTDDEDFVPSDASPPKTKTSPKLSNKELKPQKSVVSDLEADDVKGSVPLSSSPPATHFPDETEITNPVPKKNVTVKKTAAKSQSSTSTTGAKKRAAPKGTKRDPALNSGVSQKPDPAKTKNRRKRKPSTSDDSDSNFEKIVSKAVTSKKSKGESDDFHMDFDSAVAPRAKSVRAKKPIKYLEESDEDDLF

SMILES | inhibition
Clc1cc(Cl)c2c(c1)C1=NN(c3ccccc3)C(c3c[nH]c4ccccc34)C1CS2 (stereo not drawn) | inactive

tested on: MGC-803; assay: Induction of apoptosis in human MGC-803 cells assessed as late apoptotic cells at 10 uM incubated for 48 hrs by annexin V-FITC and PI staining based flow cytometry analysis (reference value: 2.96 %); assay type: functional; settings: not given

SMILES | Activity [%]
Clc1ccc2c(c1)C1=NN(c3ccccc3)C(c3c[nH]c4ccccc34)C1CS2 (stereo not drawn) | 17.02
Clc1cc(Cl)c2c(c1)C1=NN(c3ccccc3)C(c3c[nH]c4ccccc34)C1CS2 (stereo not drawn) | 4.99

tested on: MGC-803; assay: Induction of apoptosis in human MGC-803 cells assessed as early apoptotic cells at 20 uM incubated for 48 hrs by annexin V-FITC and PI staining based flow cytometry analysis (reference value: 2.54 %); assay type: functional; settings: not given

SMILES | Activity [%]
Clc1ccc2c(c1)C1=NN(c3ccccc3)C(c3c[nH]c4ccccc34)C1CS2 (stereo not drawn) | 8.17
Clc1cc(Cl)c2c(c1)C1=NN(c3ccccc3)C(c3c[nH]c4ccccc34)C1CS2 (stereo not drawn) | 12.17

tested on: HeLa; assay: Antiproliferative activity against human HeLa cells assessed as reduction in cell growth incubated for 48 hrs by MTT assay; assay type: functional, cell-based; settings: not given

SMILES | IC50 [µM]
Cc1cc(C)c2c(c1)C1=NN(c3ccccc3)C(c3c[nH]c4ccccc34)C1CS2 (stereo not drawn) | 29.2
Clc1ccc2c(c1)C1=NN(c3ccccc3)C(c3c[nH]c4ccccc34)C1CS2 (stereo not drawn) | 38.2
Clc1cc(Cl)c2c(c1)C1=NN(c3ccccc3)C(c3c[nH]c4ccccc34)C1CS2 (stereo not drawn) | 25

tested on: not listed separately; assay: Cytotoxicity against […] tumor cell line assessed as reduction in cell viability incubated for 48 hrs by MTT assay; settings: L929, 48 h

SMILES | IC50 [µM]
Cc1cc(C)c2c(c1)C1=NN(c3ccccc3)C(c3c[nH]c4ccccc34)C1CS2 (stereo not drawn) | 134
Clc1ccc2c(c1)C1=NN(c3ccccc3)C(c3c[nH]c4ccccc34)C1CS2 (stereo not drawn) | 160
Clc1cc(Cl)c2c(c1)C1=NN(c3ccccc3)C(c3c[nH]c4ccccc34)C1CS2 (stereo not drawn) | 105

tested on: MGC-803; assay: Induction of apoptosis in human MGC-803 cells assessed as necrotic cells at 20 uM incubated for 48 hrs by annexin V-FITC and PI staining based flow cytometry analysis (reference value: 0.03 %); assay type: functional; settings: not given

SMILES | Activity [%]
Clc1ccc2c(c1)C1=NN(c3ccccc3)C(c3c[nH]c4ccccc34)C1CS2 (stereo not drawn) | 2.18
Clc1cc(Cl)c2c(c1)C1=NN(c3ccccc3)C(c3c[nH]c4ccccc34)C1CS2 (stereo not drawn) | 2.54

Source: ChEMBL document CHEMBL4680270, “Synthesis and biological evaluation of novel pyrazoline derivatives containing indole skeleton as anti-cancer agents targeting topoisomerase II” (Eur J Med Chem, 2020)
